Measured values reported in patent US20200165194A1, “ADDITIVE COMPOSITION FOR CULTURE MEDIUM, ADDITIVE COMPOUND FOR CULTURE MEDIUM, AND METHOD FOR CULTURE OF CELLS OR TISSUE USING SAME” (NISSAN CHEMICAL CORPORATION, priority 2017, published 2020).
Where two headings read alike, the source gives them in different places.

Tests used:
Assay in all cases: Various human cancer cells-1, 3D culture, WST-8 (Experimental Example 5)
Type in all cases: cell-based
[1] = tested on: human epithelial-like cell cancer-derived cell line A431; settings: 4 days
Excerpt: (§1) Various human-derived cancer cells were precultured (single layer culture) in respective media shown below. Human uterus cervix cancer-derived cell line HeLa (manufactured by American Type Culture Collection (hereinafter indicated as ATCC), 10% fetal bovine serum (FBS, manufactured by Corning)-containing Dulbecco's Modified Eagle's Medium (hereinafter abbreviated as DMEM) (manufactured by Wako Pure Chemical Industries, Ltd.)), human malignant melanoma-derived cell line A375 (manufactured by ATCC, 10% FBS-containing DMEM), human epithelial-like cell cancer-derived cell line A431 (manufactured by ATCC, 10% FBS and 1% MEM non-essential amino acid solution (MEM Non-Essential Amino Acids solution (hereinafter abbreviated as NEAA) (manufactured by Wako Pure Chemical Industries, Ltd.))-containing Eagle's Minimum Essential Medium (hereinafter abbreviated as EMEM) (manufactured by Wako Pure Chemical Industries, Ltd.)), human stomach adenocarcinoma-derived cell line AGS (manufactured by DS PHARMA BIO MEDICAL, 10% FBS-containing Ham's F-12 (manufactured by Wako Pure Chemical Industries, Ltd.)), human prostate cancer-derived cell line LNCaP clone FGC (manufactured by ATCC, 10% FBS-containing RPMI1640 (manufactured by Wako Pure Chemical Industries, Ltd.)), human colon adenocarcinoma-derived cell line HCT116 (manufactured by DS PHARMA BIO MEDICAL, 10% FBS-containing McCoy's 5A Medium (manufactured by Sigma-Aldrich)), human alveolar basal epithelial adenocarcinoma-derived cell line A549 (manufactured by DS PHARMA BIO MEDICAL, 10% FBS-containing DMEM), human prostate cancer-derived cell DU145 (manufactured by ATCC, 10% FBS-containing EMEM). The above-mentioned cells in the logarithmic growth phase were washed with PBS, a 0.25 w/v % trypsin-1 mmol/L EDTA (ethylenediaminetetraacetic acid) solution (manufactured by Wako Pure Chemical Industries, Ltd.) was added, and adherent cells were detached by incubating at 37° C. for 1-5 min. Each medium was added and the mixture was centrifuged. After resuspension in the same medium, each cell was recovered.
(§2) The aforementioned various cells were suspended in respective deacylated gellan gum-containing or not containing media (deacylated gellan gum concentration was 0.015 w/v %, and 0.020 w/v % for RPMI1640 alone), and seeded in a 96 well low attachment U-bottom plate (manufactured by Corning, deacylated gellan gum-free medium), or a low attachment flat bottom plate (manufactured by Corning, deacylated gellan gum-containing medium) at a cell concentration of 1000-12000 cells/135 μL/well (all 3D culture). After static culture overnight in 37° C., 5% CO2 incubator, a DMSO solution of the compound to be used in the present invention was added to each medium at a final concentration of 5 μM or 10 μM. The amount of each compound solution to be added was 15 μL/well. As a control, a DMSO solution dissolved in a medium was added (DMSO final concentration 0.1%). After continuously culturing in an incubator at 37° C., 5% CO2 for 4 days, WST-8 solution (manufactured by DOJINDO LABORATORIES) was added at 15 μL/well, and the mixture was reacted in the same incubator for 1-2 hr. […] When compared with the compound no-addition (control), one showing a value of not more than 119% as -, one showing a value of not less than 120% as ◯, and one showing a value of not less than 150% as ⊚ are shown in the tenth table.

[2] = tested on: human malignant melanoma-derived cell line A375; settings: 4 days; for viability at 5 µM / viability at 10 µM: Homo sapiens, A-375, 96 h, read-out: number of viable cells, relative value to control (100%)
Excerpt: as §1, §2

[3] = tested on: human prostate cancer-derived cell DU145; settings: 4 days; for viability at 5 µM / viability at 10 µM: Homo sapiens, DU-145, 96 h, read-out: number of viable cells, relative value to control (100%)
Excerpt: as §1, §2

[4] = tested on: human stomach adenocarcinoma-derived cell line AGS; settings: 4 days; for viability at 5 µM / viability at 10 µM: Homo sapiens, 96 h, read-out: number of viable cells, relative value to control (100%)
Excerpt: as §1, §2

[5] = low attachment U-bottom plate (gellan gum-free), 5 μM
[6] = low attachment U-bottom plate (gellan gum-free), 10 μM
[7] = low attachment flat bottom plate (gellan gum medium), 5 μM
[8] = low attachment flat bottom plate (gellan gum medium), 10 μM

## CC/C(=N\NC(=O)Nc1ccccc1)c1ccc(O)c(C)c1O [k-1:H-10]
[1]; Homo sapiens, A-431, 96 h, low attachment U-bottom plate (gellan gum-free), 5 μM, read-out: number of viable cells, relative value to control (100%)
  viability at 5 µM: < 119%
[1]; Homo sapiens, A-431, 96 h, low attachment U-bottom plate (gellan gum-free), 10 μM, read-out: number of viable cells, relative value to control (100%)
  viability at 10 µM: < 119%
[2]; [5]
  viability at 5 µM: < 119%
[2]; [6]
  viability at 10 µM: 120 to 150%
[2]; [7]
  viability at 5 µM: < 119%
[2]; [8]
  viability at 10 µM: < 119%
[3]; [5]
  viability at 5 µM: 120 to 150%
[3]; [6]
  viability at 10 µM: < 119%
[3]; [7]
  viability at 5 µM: < 119%
[3]; [8]
  viability at 10 µM: 120 to 150%
[4]; [5]
  viability at 5 µM: 120 to 150%
[4]; [6]
  viability at 10 µM: < 119%
[4]; [7]
  viability at 5 µM: < 119%
[4]; [8]
  viability at 10 µM: < 119%

## CCC(=NNC(=O)C(CC)Nc1ccccc1)c1ccc(O)c(C)c1O (stereo not drawn) [k-1:H-7]
[1]; [5]
  number of viable cells, relative value to control (100%): ⊙
[1]; [6]
  number of viable cells, relative value to control (100%): ⊙
[1]; [7]
  number of viable cells, relative value to control (100%): ⊙
[1]; [8]
  number of viable cells, relative value to control (100%): ⊙
[2]; [6]
  number of viable cells, relative value to control (100%): ◯ (one showing a value of not less than 120% as ◯)
[2]; [7]
  number of viable cells, relative value to control (100%): ◯ (one showing a value of not less than 120% as ◯)
[3]; [5]
  number of viable cells, relative value to control (100%): ◯ (one showing a value of not less than 120% as ◯)
[3]; [6]
  number of viable cells, relative value to control (100%): ⊙
[3]; [7]
  number of viable cells, relative value to control (100%): ⊙
[3]; [8]
  number of viable cells, relative value to control (100%): ⊙
[4]; [5]
  number of viable cells, relative value to control (100%): ◯ (one showing a value of not less than 120% as ◯)
[4]; [6]
  number of viable cells, relative value to control (100%): ◯ (one showing a value of not less than 120% as ◯)
[4]; [8]
  number of viable cells, relative value to control (100%): ◯ (one showing a value of not less than 120% as ◯)
